Source: ChEMBL document CHEMBL1201862, “PubChem BioAssay data set” (2004)
Several values for one entry are separate records, joined by “and”; a condition that tells them apart may be missing. Equal entries are not always repeated.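 Step 1: Grow cells in 96-well plates. Step 2: Expose to compound for 48 hours at 5 concentrations. Step 3: Interpolate endpoints linearly; if unreached, use highest concentration. GI50 marks 50% less growth.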 Activity calls are given as the source filed them. Cut-off read from the data, not from the text of the source: active = GI50 up to about 1.1 µM and inactive = higher.

What was measured:
Assay in all cases: NCI tumour cell line growth inhibition, 48 h
786-0 = tested on: 786-0
A498 = tested on: A498
A549 = tested on: A549
ACHN = tested on: ACHN
CAKI-1 = tested on: CAKI-1
CCRF-CEM = tested on: CCRF-CEM
COLO 205 = tested on: COLO 205
DLD-1 = tested on: DLD-1
DMS-273 = tested on: DMS-273
EKVX = tested on: EKVX
HCC 2998 = tested on: HCC 2998
HCT-116 = tested on: HCT-116
HCT-15 = tested on: HCT-15
HL-60 = tested on: HL-60
HOP-18 = tested on: HOP-18
HOP-62 = tested on: HOP-62
HOP-92 = tested on: HOP-92
HT-29 = tested on: HT-29
IGROV-1 = tested on: IGROV-1
K562 = tested on: K562
KM-20L2 = tested on: KM-20L2
KM12 = tested on: KM12
LXFL 529 = tested on: LXFL 529
M14 = tested on: M14
M19-MEL = tested on: M19-MEL
MOLT-4 = tested on: MOLT-4
Malme-3M = tested on: Malme-3M
NCI-H226 = tested on: NCI-H226
NCI-H23 = tested on: NCI-H23
NCI-H460 = tested on: NCI-H460
NCI-H522 = tested on: NCI-H522
OVCAR-3 = tested on: OVCAR-3
OVCAR-4 = tested on: OVCAR-4
OVCAR-5 = tested on: OVCAR-5
OVCAR-8 = tested on: OVCAR-8
RPMI-8226 = tested on: RPMI-8226
RXF 631 = tested on: RXF 631
SF-268 = tested on: SF-268
SF-295 = tested on: SF-295
SF-539 = tested on: SF-539
SK-MEL-28 = tested on: SK-MEL-28
SK-MEL-2 = tested on: SK-MEL-2
SK-MEL-5 = tested on: SK-MEL-5
SK-OV-3 = tested on: SK-OV-3
SN12C = tested on: SN12C
SNB-19 = tested on: SNB-19
SNB-75 = tested on: SNB-75
SNB-78 = tested on: SNB-78
SR = tested on: SR
SW-620 = tested on: SW-620
TK-10 = tested on: TK-10
U-251 = tested on: U-251
UACC-257 = tested on: UACC-257
UACC-62 = tested on: UACC-62
UO-31 = tested on: UO-31
XF498 = tested on: XF498
DMS-114 = tested on: DMS-114
LOX IMVI = tested on: LOX IMVI
RXF 393 = tested on: RXF 393

## Cc1cccc(-c2nnc(S)[nH]2)c1
786-0
  GI50: > 100 µM (inactive)
A498
  GI50: > 100 µM (inactive)
A549
  GI50: > 100 µM (inactive)
ACHN
  GI50: > 100 µM (inactive)
CAKI-1
  GI50: > 100 µM (inactive)
CCRF-CEM
  GI50: > 100 µM (inactive)
COLO 205
  GI50: > 100 µM (inactive)
DLD-1
  GI50: > 100 µM (inactive)
DMS-273
  GI50: > 100 µM (inactive)
EKVX
  GI50: > 100 µM (inactive)
HCC 2998
  GI50: > 100 µM (inactive)
HCT-116
  GI50: > 100 µM (inactive)
HCT-15
  GI50: > 100 µM
HL-60
  GI50: > 100 µM (inactive)
HOP-18
  GI50: > 100 µM (inactive)
HOP-62
  GI50: > 100 µM (inactive)
HOP-92
  GI50: > 100 µM (inactive)
HT-29
  GI50: > 100 µM (inactive)
IGROV-1
  GI50: > 100 µM (inactive)
K562
  GI50: > 100 µM (inactive)
KM-20L2
  GI50: > 100 µM (inactive)
KM12
  GI50: > 100 µM (inactive)
LXFL 529
  GI50: > 100 µM (inactive)
M14
  GI50: > 100 µM (inactive)
M19-MEL
  GI50: > 100 µM (inactive)
MOLT-4
  GI50: 89.5 µM (inactive)
Malme-3M
  GI50: > 100 µM (inactive)
NCI-H226
  GI50: > 100 µM (inactive)
NCI-H23
  GI50: > 100 µM (inactive)
NCI-H460
  GI50: > 100 µM (inactive)
NCI-H522
  GI50: > 100 µM (inactive)
OVCAR-3
  GI50: > 100 µM (inactive)
OVCAR-4
  GI50: > 100 µM (inactive)
OVCAR-5
  GI50: > 100 µM (inactive)
OVCAR-8
  GI50: > 100 µM (inactive)
RPMI-8226
  GI50: > 100 µM (inactive)
RXF 631
  GI50: > 100 µM (inactive)
SF-268
  GI50: > 100 µM (inactive)
SF-295
  GI50: > 100 µM (inactive)
SF-539
  GI50: > 100 µM (inactive)
SK-MEL-28
  GI50: > 100 µM (inactive)
SK-MEL-2
  GI50: > 100 µM (inactive)
SK-MEL-5
  GI50: > 100 µM (inactive)
SK-OV-3
  GI50: > 100 µM (inactive)
SN12C
  GI50: > 100 µM (inactive)
SNB-19
  GI50: > 100 µM (inactive)
SNB-75
  GI50: > 100 µM (inactive)
SNB-78
  GI50: > 100 µM (inactive)
SR
  GI50: > 100 µM (inactive)
SW-620
  GI50: > 100 µM (inactive)
TK-10
  GI50: > 100 µM (inactive)
U-251
  GI50: > 100 µM (inactive)
UACC-257
  GI50: > 100 µM (inactive)
UACC-62
  GI50: > 100 µM (inactive)
UO-31
  GI50: > 100 µM (inactive)
XF498
  GI50: > 100 µM (inactive)

## O=C(COc1ccccc1)NS(=O)(=O)c1ccccc1
786-0
  GI50: > 100 µM (inactive)
A498
  GI50: > 100 µM (inactive)
A549
  GI50: > 100 µM (inactive)
ACHN
  GI50: > 100 µM (inactive)
CAKI-1
  GI50: > 100 µM (inactive)
CCRF-CEM
  GI50: > 100 µM (inactive)
COLO 205
  GI50: > 100 µM (inactive)
DLD-1
  GI50: > 100 µM (inactive)
DMS-114
  GI50: > 100 µM (inactive)
EKVX
  GI50: > 100 µM (inactive)
HCC 2998
  GI50: > 100 µM (inactive)
HCT-116
  GI50: > 100 µM (inactive)
HCT-15
  GI50: > 100 µM
HL-60
  GI50: > 100 µM (inactive)
HOP-18
  GI50: > 100 µM (inactive)
HOP-62
  GI50: > 100 µM (inactive)
HOP-92
  GI50: > 100 µM (inactive)
HT-29
  GI50: > 100 µM (inactive)
IGROV-1
  GI50: > 100 µM (inactive)
K562
  GI50: > 100 µM (inactive)
KM-20L2
  GI50: > 100 µM (inactive)
KM12
  GI50: > 100 µM (inactive)
LOX IMVI
  GI50: > 100 µM (inactive)
LXFL 529
  GI50: > 100 µM (inactive)
M14
  GI50: > 100 µM (inactive)
M19-MEL
  GI50: > 100 µM (inactive)
MOLT-4
  GI50: > 100 µM (inactive)
Malme-3M
  GI50: > 100 µM (inactive)
NCI-H226
  GI50: > 100 µM (inactive)
NCI-H23
  GI50: > 100 µM (inactive)
NCI-H460
  GI50: > 100 µM (inactive)
NCI-H522
  GI50: > 100 µM (inactive)
OVCAR-3
  GI50: > 100 µM (inactive)
OVCAR-4
  GI50: > 100 µM (inactive)
OVCAR-5
  GI50: > 100 µM (inactive)
OVCAR-8
  GI50: > 100 µM (inactive)
RPMI-8226
  GI50: > 100 µM (inactive)
RXF 393
  GI50: > 100 µM (inactive)
RXF 631
  GI50: > 100 µM (inactive)
SF-268
  GI50: > 100 µM (inactive)
SF-295
  GI50: > 100 µM (inactive)
SF-539
  GI50: > 100 µM (inactive)
SK-MEL-28
  GI50: > 100 µM (inactive)
SK-MEL-2
  GI50: > 100 µM (inactive)
SK-OV-3
  GI50: > 100 µM (inactive)
SN12C
  GI50: > 100 µM (inactive)
SNB-19
  GI50: > 100 µM (inactive)
SNB-75
  GI50: > 100 µM (inactive)
SNB-78
  GI50: > 100 µM (inactive)
SR
  GI50: > 100 µM (inactive)
SW-620
  GI50: > 100 µM (inactive)
TK-10
  GI50: > 100 µM (inactive)
U-251
  GI50: > 100 µM (inactive)
UACC-257
  GI50: > 100 µM (inactive)
UACC-62
  GI50: > 100 µM (inactive)
UO-31
  GI50: > 100 µM (inactive)

## CC(=O)OCC1OC(n2c(=S)n(-c3ccccc3)c(=S)c3ccccc32)C(OC(C)=O)C(OC(C)=O)C1OC(C)=O (centres undefined)
786-0
  GI50: > 80.9 µM (inactive) and 62.8 µM (inactive)
HCT-116
  GI50: > 89.1 µM (inactive) and 57 µM (inactive)
HOP-18
  GI50: 6.87 µM (inactive)
HOP-92
  GI50: > 37.7 µM (inactive) and 41.1 µM (inactive)
RXF 631
  GI50: > 57.3 µM (inactive) and 71.4 µM (inactive)
SF-539
  GI50: 43.9 µM (inactive) and 48.5 µM (inactive)
TK-10
  GI50: 16.9 µM (inactive)
